Results as given in PubChem BioAssay AID270 (DTP/NCI, 2004).
Where “and” joins values, the source holds several entries; their conditions need not be identical. Equal values may be shown once. Inconclusive results are not listed.

System: BDF1 mice, s.c. Lewis lung carcinoma, T/C %
Test: NCI In Vivo Anticancer Drug Screen. Data for tumor model Lewis Lung Carcinoma (subcutaneous) in B6D2F1 (BDF1) mice
In short: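 First, mice carry a transplantable tumor. Next, groups receive either compound or vehicle. Finally, survival or tumor dimensions in the dosed animals are divided by the corresponding control figure.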

[1] = endpoint: mean tumor weight, dose: 50.0 mg/kg/injection, schedule: Q01DX011 (ip), vehicle: saline, higher = larger tumour

With `O=c1cc[nH]c(=O)o1` the T/C (endpoint: median survival time, dose: 1.5 mg/kg/injection, schedule: Q01DX009 (ip), vehicle: water, higher = longer survival) was 102 % of control, the T/C (endpoint: median survival time, dose: 3.0 mg/kg/injection, schedule: Q01DX009 (ip), vehicle: water, higher = longer survival) was 95 % of control and the T/C (endpoint: median survival time, dose: 3.12 mg/kg/injection, schedule: Q01DX008 (ip), vehicle: water, higher = longer survival) was 93 % of control. The T/C (endpoint: median survival time, dose: 3.12 mg/kg/injection, schedule: Q01DX009 (ip), vehicle: water, higher = longer survival) was 114 % of control, the T/C (endpoint: median survival time, dose: 6.0 mg/kg/injection, schedule: Q01DX009 (ip), vehicle: water, higher = longer survival) was 94 % of control and the T/C (endpoint: median survival time, dose: 6.25 mg/kg/injection, schedule: Q01DX008 (ip), vehicle: water, higher = longer survival) was 118 % of control. For the same molecule, the T/C (endpoint: median survival time, dose: 6.25 mg/kg/injection, schedule: Q01DX009 (ip), vehicle: water, higher = longer survival) was 108 % of control and 243 % of control, the T/C (endpoint: median survival time, dose: 12.0 mg/kg/injection, schedule: Q01DX009 (ip), vehicle: water, higher = longer survival) was 106 % of control and 108 % of control and the T/C (endpoint: median survival time, dose: 12.5 mg/kg/injection, schedule: Q01DX008 (ip), vehicle: water, higher = longer survival) was 114 % of control. For the same molecule, the T/C (endpoint: median survival time, dose: 12.5 mg/kg/injection, schedule: Q01DX009 (ip), vehicle: water, higher = longer survival) was 103 % of control and 243 % of control, the T/C (endpoint: median survival time, dose: 24.0 mg/kg/injection, schedule: Q01DX009 (ip), vehicle: water, higher = longer survival) was 98 % of control and 116 % of control and the T/C (endpoint: median survival time, dose: 25.0 mg/kg/injection, schedule: Q01DX008 (ip), vehicle: water, higher = longer survival) was 112 % of control. The T/C (endpoint: median survival time, dose: 25.0 mg/kg/injection, schedule: Q01DX009 (ip), vehicle: water, higher = longer survival) was 107 % of control.
In the case of `CCCCCC[C@@H](O)C/C=C\CCCCCCCC(=O)O`, the T/C (endpoint: mean tumor weight, dose: 25.0 mg/kg/injection, schedule: Q01DX011 (ip), vehicle: saline, higher = larger tumour) is reported as 104 % of control, the T/C [1] is reported as 77 % of control and the T/C (endpoint: mean tumor weight, dose: 100.0 mg/kg/injection, schedule: Q01DX011 (ip), vehicle: saline, higher = larger tumour) is reported as 59 % of control.
In the case of `C=C1C(=O)O[C@@H]2[C@H](O)[C@@H](C)[C@@H]3C=CC(=O)[C@@]3(C)[C@H](OC(=O)C=C(C)C)[C@H]12`, the T/C (endpoint: median survival time, dose: 0.63 mg/kg/injection, schedule: Q01DX009 (ip), vehicle: saline with Tween-80, higher = longer survival) is reported as 95 % of control, the T/C (endpoint: median survival time, dose: 1.25 mg/kg/injection, schedule: Q01DX009 (ip), vehicle: saline with Tween-80, higher = longer survival) is reported as 92 % of control and the T/C (endpoint: median survival time, dose: 2.5 mg/kg/injection, schedule: Q01DX009 (ip), vehicle: saline with Tween-80, higher = longer survival) is reported as 99 % of control. The T/C (endpoint: median survival time, dose: 5.0 mg/kg/injection, schedule: Q01DX009 (ip), vehicle: saline with Tween-80, higher = longer survival) was 95 % of control, the T/C (endpoint: median survival time, dose: 10.0 mg/kg/injection, schedule: Q01DX009 (ip), vehicle: Klucel (hydroxypropylcellulose) (HPC), higher = longer survival) was 118 % of control and the T/C (endpoint: median survival time, dose: 10.0 mg/kg/injection, schedule: Q01DX009 (ip), vehicle: saline with Tween-80, higher = longer survival) was 92 % of control.
With `COC1=NCN=C2SC=C(N)N=C12` the T/C (endpoint: median survival time, dose: 12.5 mg/kg/injection, schedule: Q01DX009 (ip), vehicle: saline, higher = longer survival) was 107 % of control, the T/C (endpoint: median survival time, dose: 25.0 mg/kg/injection, schedule: Q01DX009 (ip), vehicle: saline, higher = longer survival) was 122 % of control and the T/C (endpoint: median survival time, dose: 50.0 mg/kg/injection, schedule: Q01DX009 (ip), vehicle: saline, higher = longer survival) was 110 % of control.
For `Nc1ccc(Cl)c(N)c1`, the T/C (endpoint: mean tumor weight, dose: 22.0 mg/kg/injection, schedule: Q01DX011 (ip), vehicle: saline, higher = larger tumour) was 115 % of control, the T/C (endpoint: mean tumor weight, dose: 33.0 mg/kg/injection, schedule: Q01DX011 (ip), vehicle: saline, higher = larger tumour) was 117 % of control and the T/C [1] was 105 % of control.
With `CC(=O)[C@H]1CC[C@H]2[C@@H]3C[C@H](C)C4=CC(=O)CC[C@]4(C)[C@H]3C(=O)C[C@]12C` the T/C (endpoint: mean tumor weight (est.), dose: 100.0 mg/kg/injection, schedule: Q01DX009 (ip), vehicle: saline, higher = larger tumour) was 65 % of control, the T/C (endpoint: mean tumor weight (est.), dose: 200.0 mg/kg/injection, schedule: Q01DX009 (ip), vehicle: saline, higher = larger tumour) was 35 % of control and the T/C (endpoint: mean tumor weight (est.), dose: 400.0 mg/kg/injection, schedule: Q01DX009 (ip), vehicle: saline, higher = larger tumour) was 37 % of control. The T/C (endpoint: mean tumor weight (est.), dose: 800.0 mg/kg/injection, schedule: Q01DX009 (ip), vehicle: saline, higher = larger tumour) was 60 % of control, the T/C (endpoint: median survival time, dose: 100.0 mg/kg/injection, schedule: Q01DX009 (ip), vehicle: saline, higher = longer survival) was 103 % of control and the T/C (endpoint: median survival time, dose: 200.0 mg/kg/injection, schedule: Q01DX009 (ip), vehicle: saline, higher = longer survival) was 110 % of control. The T/C (endpoint: median survival time, dose: 400.0 mg/kg/injection, schedule: Q01DX009 (ip), vehicle: saline, higher = longer survival) was 113 % of control and the T/C (endpoint: median survival time, dose: 800.0 mg/kg/injection, schedule: Q01DX009 (ip), vehicle: saline, higher = longer survival) was 100 % of control.
